Assay results published in ChEMBL document CHEMBL3301555, “MMV Malaria Box screening in pLDH viability assay against Plasmodium falciparum gametocytes”.

How the values were obtained:
[1] = system: Plasmodium falciparum; experiment: (§1) MMV: Measure of pLDH activity as indication of parasite viability. Gametocytogenesis of 3D7 Plasmodium falciparum strain was induced in vitro and asexual parasites were depleted with N-acetylglucosamine. Gametocytes were treated with dihydroartemisinin, epoxomicin, methylene blue, primaquine, puromycin or chloroquine in 96-well plates and the pLDH activity was evaluated using a modified Makler protocol. Mosquito infectivity was measured by the standard membrane feeding assay.; assay type: functional; design: concentration or dose not given beside the values
[2] = system: Plasmodium falciparum; experiment: as §1, with “assay. The IC50 value was extrapolated as the concentration that induced a 50% inhibition of gametocyte viability.” for “assay.”; assay type: functional, organism-based

| SMILES | Growth Inhibition [1] [%] | IC50 [2] [µM] |
| --- | --- | --- |
| COc1ccc(C2c3ccc4ccccc4c3Oc3ncn(CCCN(C)C)c(=N)c32)cc1 (stereo not given) | 88.163 | 0.696 |
| COC(=O)c1ccc(C2C3=C(O)CC(c4ccc(F)cc4)CC3=Nc3ccccc3N2C(=O)c2ccccc2)cc1 (stereo not given) | 56.5126 | 6.52 |
| CCOc1ccc(CN2CCN(CC(O)COc3ccc(OCC(O)CN4CCN(Cc5ccc(OCC)cc5)CC4)cc3)CC2)cc1 (stereo not given) | 89.2205 | 1.34 |
| O=C(NC1CCN(Cc2ccccc2)CC1)c1cc(C(=O)NC2CCN(Cc3ccccc3)CC2)cc(C(=O)NC2CCN(Cc3ccccc3)CC2)c1 | 82.7495 | 0.288 |
| COc1ccc(C(=O)C(CCC(CNC(C)(C)C)C(=O)c2ccc(OC)cc2)CNC(C)(C)C)cc1 (stereo not given) | 56.45 | 3.22 |
| COc1cc(C(=O)ON=C(N)Cc2cccc3ccccc23)cc(OC)c1OC | 60.0732 | 4.04 |
| Oc1c(C(Nc2ccccn2)c2cccc(Oc3ccccc3)c2)ccc2cccnc12 (stereo not given) | 50.44 | 3.89 |
| OC(CNC1CCCCC1)Cn1c2ccc(I)cc2c2cc(I)ccc21 (stereo not given) | 78.0014 | 0.758 |
| CC1CC2=C(CC1CNCCCN(C)C)C(C)(C)CCC2 (stereo not given) | 91.9455 | 0.576 |
| CN(C)c1ccc(C(O)(c2ccc(N(C)C)cc2)c2ccc(N(C)C)cc2)cc1 [METHYLROSANILINE] | 76.3425 | 0.158 |
